From patent US11059773B2, “Type-B fenolamine crystal form, preparation method, composition and use thereof” (INSTITUTE OF MATARIA MEDICA, CHINESE ACADEMY OF MEDICAL …, priority 2017, dated 2021)
Entries after “also recorded” stand apart in the source; their conditions may differ.

Legend:
[1] = Dissolution of type-B fenolamine crystal form in six solvent systems; format: physicochemical
Protocol: The solubility was evaluated by using a type-B fenolamine crystal form sample (fenolamine:ethanol=1:0.2) having a crystallized ethanol content of 2.0%.
The solvent systems were selected by: (1) referring to solvent systems used in the dissolution determination method in the Appendix of the Pharmacopoeia; (2) referring to the digestive solution pH in various organs of an organism; (3) improving the solubility of water-insoluble drugs. Based the above three references, solvent systems with six pH values were set up: a 0.1 N hydrochloric acid solution with pH 1.2; an acetate buffer solution with pH 4.5; a phosphate buffer solution with pH 6.5; an water solution with pH 6.7; a 0.2% SDS solution with pH 7.0; a 0.5% SDS solution with pH 7.3.
Measurement was carried out according to the solubility determination method (“Guidelines for Dissolution Test Technique of General Oral Solid Preparations (Draft)”, October 2012, the Drug Review Center). With the percentage of the samples dissolved by mass calculated from the absorbance data, solubility curves were respectively drawn with time as abscissa and dissolved contents as ordinate and shown in FIG. 10.

[2] = Stability of type-B fenolamine crystal form solid (influencing factors: high temperature, high humidity, illumination); format: physicochemical; conditions: starting ethanol content 2.58%
Protocol: Type-B fenolamine crystal form samples (having a crystallized ethanol content of 2.58%) were placed in open clean watch glasses, and kept under conditions of a high temperature of 60° C., a high temperature of 40° C., and 25° C., a relative humidity of 90%±5%, and illumination at 4500 lx±500 lx for 10 days, and samples were taken on Days 0, 5, and 10. Powder X-ray diffraction (with a resultant pattern consistent to that in FIG. 1) and gas chromatography means were used for analysis.

SMILES: COc1ccc(OC)c(/C(=C\c2ccc(O)c(OC)c2)C(=O)NCCc2ccc(O)cc2)c1 [type-B fenolamine crystal form, trans-2-(2,5-dimethoxyphenyl)-3-(4-hydroxy-3-methoxyphenyl)-N-(4-hydroxyphenylethyl) acrylamide]
- Dissolution (percentage of sample dissolved by mass) ([1]; 0.1N hydrochloric acid pH 1.2, 5 min): 0.00%
- Dissolution (percentage of sample dissolved by mass) ([1]; 0.1N hydrochloric acid pH 1.2, 15 min): 0.00%
- Dissolution (percentage of sample dissolved by mass) ([1]; 0.1N hydrochloric acid pH 1.2, 30 min): 2.35%
- Dissolution (percentage of sample dissolved by mass) ([1]; 0.1N hydrochloric acid pH 1.2, 60 min): 5.75%
- Dissolution (percentage of sample dissolved by mass) ([1]; 0.1N hydrochloric acid pH 1.2, 120 min): 11.42%
- Dissolution (percentage of sample dissolved by mass) ([1]; 0.1N hydrochloric acid pH 1.2, 180 min): 14.07%
- Dissolution (percentage of sample dissolved by mass) ([1]; 0.1N hydrochloric acid pH 1.2, 240 min): 18.54%
- Dissolution (percentage of sample dissolved by mass) ([1]; 0.1N hydrochloric acid pH 1.2, 300 min): 20.04%
- Dissolution (percentage of sample dissolved by mass) ([1]; 0.1N hydrochloric acid pH 1.2, 360 min): 23.69%
- Dissolution (percentage of sample dissolved by mass) ([1]; 0.1N hydrochloric acid pH 1.2, 420 min): 25.07%
- Dissolution (percentage of sample dissolved by mass) ([1]; 0.2% SDS pH 7.0, 5 min): 21.57%
- Dissolution (percentage of sample dissolved by mass) ([1]; 0.2% SDS pH 7.0, 15 min): 32.50%
- Dissolution (percentage of sample dissolved by mass) ([1]; 0.2% SDS pH 7.0, 30 min): 42.43%
- Dissolution (percentage of sample dissolved by mass) ([1]; 0.2% SDS pH 7.0, 60 min): 59.66%
- Dissolution (percentage of sample dissolved by mass) ([1]; 0.2% SDS pH 7.0, 120 min): 91.98%
- Dissolution (percentage of sample dissolved by mass) ([1]; 0.2% SDS pH 7.0, 180 min): 92.35%
- Dissolution (percentage of sample dissolved by mass) ([1]; 0.2% SDS pH 7.0, 240 min): 95.75%
- Dissolution (percentage of sample dissolved by mass) ([1]; 0.2% SDS pH 7.0, 300 min): 95.82%
- Dissolution (percentage of sample dissolved by mass) ([1]; 0.2% SDS pH 7.0, 360 min): 95.90%
- Dissolution (percentage of sample dissolved by mass) ([1]; 0.2% SDS pH 7.0, 420 min): 95.93%
- Dissolution (percentage of sample dissolved by mass) ([1]; 0.5% SDS pH 7.3, 5 min): 35.04%
- Dissolution (percentage of sample dissolved by mass) ([1]; 0.5% SDS pH 7.3, 15 min): 55.30%
- Dissolution (percentage of sample dissolved by mass) ([1]; 0.5% SDS pH 7.3, 30 min): 73.32%
- Dissolution (percentage of sample dissolved by mass) ([1]; 0.5% SDS pH 7.3, 60 min): 86.90%
- Dissolution (percentage of sample dissolved by mass) ([1]; 0.5% SDS pH 7.3, 120 min): 97.35%
- Dissolution (percentage of sample dissolved by mass) ([1]; 0.5% SDS pH 7.3, 180 min): 97.69%
- Dissolution (percentage of sample dissolved by mass) ([1]; 0.5% SDS pH 7.3, 240 min): 98.40%
- Dissolution (percentage of sample dissolved by mass) ([1]; 0.5% SDS pH 7.3, 300 min): 98.47%
- Dissolution (percentage of sample dissolved by mass) ([1]; 0.5% SDS pH 7.3, 360 min): 98.51%
- Dissolution (percentage of sample dissolved by mass) ([1]; 0.5% SDS pH 7.3, 420 min): 100.00%
- Dissolution (percentage of sample dissolved by mass) ([1]; Acetate buffer pH 4.5, 5 min): 0.00%
- Dissolution (percentage of sample dissolved by mass) ([1]; Acetate buffer pH 4.5, 15 min): 0.00%
- Dissolution (percentage of sample dissolved by mass) ([1]; Acetate buffer pH 4.5, 30 min): 0.49%
- Dissolution (percentage of sample dissolved by mass) ([1]; Acetate buffer pH 4.5, 60 min): 2.57%
- Dissolution (percentage of sample dissolved by mass) ([1]; Acetate buffer pH 4.5, 120 min): 7.54%
- Dissolution (percentage of sample dissolved by mass) ([1]; Acetate buffer pH 4.5, 180 min): 11.34%
- Dissolution (percentage of sample dissolved by mass) ([1]; Acetate buffer pH 4.5, 240 min): 15.82%
- Dissolution (percentage of sample dissolved by mass) ([1]; Acetate buffer pH 4.5, 300 min): 19.51%
- Dissolution (percentage of sample dissolved by mass) ([1]; Acetate buffer pH 4.5, 360 min): 20.15%
- Dissolution (percentage of sample dissolved by mass) ([1]; Acetate buffer pH 4.5, 420 min): 20.71%
- Dissolution (percentage of sample dissolved by mass) ([1]; Phosphate buffer pH 6.5, 5 min): 49.51%
- Dissolution (percentage of sample dissolved by mass) ([1]; Phosphate buffer pH 6.5, 15 min): 49.81%
- Dissolution (percentage of sample dissolved by mass) ([1]; Phosphate buffer pH 6.5, 30 min): 49.89%
- Dissolution (percentage of sample dissolved by mass) ([1]; Phosphate buffer pH 6.5, 60 min): 49.96%
- Dissolution (percentage of sample dissolved by mass) ([1]; Phosphate buffer pH 6.5, 120 min): 51.08%
- Dissolution (percentage of sample dissolved by mass) ([1]; Phosphate buffer pH 6.5, 180 min): 51.72%
- Dissolution (percentage of sample dissolved by mass) ([1]; Phosphate buffer pH 6.5, 240 min): 51.87%
- Dissolution (percentage of sample dissolved by mass) ([1]; Phosphate buffer pH 6.5, 300 min): 53.32%
- Dissolution (percentage of sample dissolved by mass) ([1]; Phosphate buffer pH 6.5, 360 min): 53.40%
- Dissolution (percentage of sample dissolved by mass) ([1]; Phosphate buffer pH 6.5, 420 min): 53.47%
- Dissolution (percentage of sample dissolved by mass) ([1]; Water pH 6.7, 5 min): 0.00%
- Dissolution (percentage of sample dissolved by mass) ([1]; Water pH 6.7, 15 min): 0.34%
- Dissolution (percentage of sample dissolved by mass) ([1]; Water pH 6.7, 30 min): 2.01%
- Dissolution (percentage of sample dissolved by mass) ([1]; Water pH 6.7, 60 min): 5.26%
- Dissolution (percentage of sample dissolved by mass) ([1]; Water pH 6.7, 120 min): 11.42%
- Dissolution (percentage of sample dissolved by mass) ([1]; Water pH 6.7, 180 min): 20.22%
- Dissolution (percentage of sample dissolved by mass) ([1]; Water pH 6.7, 240 min): 21.94%
- Dissolution (percentage of sample dissolved by mass) ([1]; Water pH 6.7, 300 min): 26.04%
- Dissolution (percentage of sample dissolved by mass) ([1]; Water pH 6.7, 360 min): 28.96%
- Dissolution (percentage of sample dissolved by mass) ([1]; Water pH 6.7, 420 min): 32.13%
- Solubility in six solvent systems imitating different pH environments in human body (in words) ([1]; compared with type-F crystal form): good solubility; also recorded: superior to the type-F crystal form
- Stability of the crystal form (powder X-ray diffraction and gas chromatography) ([2]; 60° C., 40° C., 25° C. with RH 90%±5%, 4500 lx±500 lx, 10 days): stable under conditions of high temperature, high humidity and light illumination
- Crystallized ethanol content after storage ([2]; 10 days at high temperature): about 2.1%
